Data taken from PubChem BioAssay (NCI).
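Exposure lasted 48 hours, with cells grown in 96-well plates and compounds tested at five concentrations. At the GI50, growth is halved. At the TGI there is no net growth.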

Tests used:
Experiment in all cases: DTP human tumour cell line panel, 48 h
SN12C renal = tested on: SN12C renal
SR leukemia = tested on: SR leukemia
SW-620 colon = tested on: SW-620 colon
HS 578T breast = tested on: HS 578T breast
T-47D breast = tested on: T-47D breast
NCI-H23 lung = tested on: NCI-H23 lung
MDA-MB-231 breast = tested on: MDA-MB-231 breast
OVCAR-8 ovarian = tested on: OVCAR-8 ovarian
HCC-2998 colon = tested on: HCC-2998 colon
SK-MEL-5 melanoma = tested on: SK-MEL-5 melanoma
SF-295 CNS = tested on: SF-295 CNS
BT-549 breast = tested on: BT-549 breast
EKVX NSCLC = tested on: EKVX NSCLC
SF-268 CNS = tested on: SF-268 CNS
U251 CNS = tested on: U251 CNS
IGROV1 ovarian = tested on: IGROV1 ovarian
HL-60(TB) leukemia = tested on: HL-60(TB) leukemia
ACHN renal = tested on: ACHN renal
MALME-3M melanoma = tested on: MALME-3M melanoma
A549 NSCLC = tested on: A549 NSCLC
RXF 393 renal = tested on: RXF 393 renal
OVCAR-5 ovarian = tested on: OVCAR-5 ovarian
HOP-62 NSCLC = tested on: HOP-62 NSCLC
PC-3 prostate = tested on: PC-3 prostate
TK-10 renal = tested on: TK-10 renal
HT29 colon = tested on: HT29 colon
M14 melanoma = tested on: M14 melanoma
SK-MEL-2 melanoma = tested on: SK-MEL-2 melanoma
HCT-15 colon = tested on: HCT-15 colon
SK-MEL-28 melanoma = tested on: SK-MEL-28 melanoma
786-0 renal = tested on: 786-0 renal
SK-OV-3 ovarian = tested on: SK-OV-3 ovarian
A498 renal = tested on: A498 renal
DU-145 prostate = tested on: DU-145 prostate
UACC-257 melanoma = tested on: UACC-257 melanoma
HOP-92 NSCLC = tested on: HOP-92 NSCLC
NCI/ADR-RES ovarian = tested on: NCI/ADR-RES ovarian
KM12 colon = tested on: KM12 colon
UO-31 renal = tested on: UO-31 renal
MDA-MB-435 = tested on: MDA-MB-435
OVCAR-3 ovarian = tested on: OVCAR-3 ovarian
HCT-116 colon = tested on: HCT-116 colon
CCRF-CEM leukemia = tested on: CCRF-CEM leukemia
NCI-H460 lung = tested on: NCI-H460 lung
MOLT-4 leukemia = tested on: MOLT-4 leukemia
LOX IMVI melanoma = tested on: LOX IMVI melanoma
SNB-19 CNS = tested on: SNB-19 CNS
COLO 205 colon = tested on: COLO 205 colon
MCF7 breast = tested on: MCF7 breast
OVCAR-4 ovarian = tested on: OVCAR-4 ovarian
K-562 leukemia = tested on: K-562 leukemia
SF-539 CNS = tested on: SF-539 CNS
UACC-62 melanoma = tested on: UACC-62 melanoma
RPMI-8226 leukemia = tested on: RPMI-8226 leukemia
SNB-75 CNS = tested on: SNB-75 CNS
NCI-H226 lung = tested on: NCI-H226 lung

CCC(=O)O[C@@H]([C@H](C)[C@H]1OC(CC)=C(C)C(=O)[C@@H]1C)[C@@H](C)C(=O)CC
GI50 (SN12C renal): > 100 µM
TGI (SN12C renal): > 100 µM
GI50 (SR leukemia): 92.4 µM
TGI (SR leukemia): > 100 µM
GI50 (SW-620 colon): > 100 µM
TGI (SW-620 colon): > 100 µM
GI50 (HS 578T breast): 96.8 µM
TGI (HS 578T breast): > 100 µM
GI50 (T-47D breast): 23.6 µM
TGI (T-47D breast): > 100 µM
GI50 (NCI-H23 lung): 37.8 µM
TGI (NCI-H23 lung): > 100 µM
GI50 (MDA-MB-231 breast): > 100 µM
TGI (MDA-MB-231 breast): > 100 µM
GI50 (OVCAR-8 ovarian): > 100 µM
TGI (OVCAR-8 ovarian): > 100 µM
GI50 (HCC-2998 colon): 0.183 µM
TGI (HCC-2998 colon): 47 µM
GI50 (SK-MEL-5 melanoma): 53.6 µM
TGI (SK-MEL-5 melanoma): > 100 µM
GI50 (SF-295 CNS): > 100 µM
TGI (SF-295 CNS): > 100 µM
GI50 (BT-549 breast): 90.2 µM
TGI (BT-549 breast): > 100 µM
GI50 (EKVX NSCLC): > 100 µM
TGI (EKVX NSCLC): > 100 µM
GI50 (SF-268 CNS): > 100 µM
TGI (SF-268 CNS): > 100 µM
GI50 (U251 CNS): > 100 µM
TGI (U251 CNS): > 100 µM
GI50 (IGROV1 ovarian): 19.9 µM
TGI (IGROV1 ovarian): > 100 µM
GI50 (HL-60(TB) leukemia): 37.4 µM
TGI (HL-60(TB) leukemia): > 100 µM
GI50 (ACHN renal): > 100 µM
TGI (ACHN renal): > 100 µM
GI50 (MALME-3M melanoma): > 100 µM
TGI (MALME-3M melanoma): > 100 µM
GI50 (A549 NSCLC): > 100 µM
TGI (A549 NSCLC): > 100 µM
GI50 (RXF 393 renal): > 100 µM
TGI (RXF 393 renal): > 100 µM
GI50 (OVCAR-5 ovarian): 32.7 µM
TGI (OVCAR-5 ovarian): > 100 µM
GI50 (HOP-62 NSCLC): > 100 µM
TGI (HOP-62 NSCLC): > 100 µM
GI50 (PC-3 prostate): 59.6 µM
TGI (PC-3 prostate): > 100 µM
GI50 (TK-10 renal): > 100 µM
TGI (TK-10 renal): > 100 µM
GI50 (HT29 colon): 53.6 µM
TGI (HT29 colon): > 100 µM
GI50 (M14 melanoma): > 100 µM
TGI (M14 melanoma): > 100 µM
GI50 (SK-MEL-2 melanoma): > 100 µM
TGI (SK-MEL-2 melanoma): > 100 µM
GI50 (HCT-15 colon): > 100 µM
TGI (HCT-15 colon): > 100 µM
GI50 (SK-MEL-28 melanoma): > 100 µM
TGI (SK-MEL-28 melanoma): > 100 µM
GI50 (786-0 renal): > 100 µM
TGI (786-0 renal): > 100 µM
GI50 (SK-OV-3 ovarian): > 100 µM
TGI (SK-OV-3 ovarian): > 100 µM
GI50 (A498 renal): 88.9 µM
TGI (A498 renal): > 100 µM
GI50 (DU-145 prostate): > 100 µM
TGI (DU-145 prostate): > 100 µM
GI50 (UACC-257 melanoma): > 100 µM
TGI (UACC-257 melanoma): > 100 µM
GI50 (HOP-92 NSCLC): > 100 µM
TGI (HOP-92 NSCLC): > 100 µM
GI50 (NCI/ADR-RES ovarian): 31.7 µM
TGI (NCI/ADR-RES ovarian): > 100 µM
GI50 (KM12 colon): 60.1 µM
TGI (KM12 colon): > 100 µM
GI50 (UO-31 renal): > 100 µM
TGI (UO-31 renal): > 100 µM
GI50 (MDA-MB-435): > 100 µM
TGI (MDA-MB-435): > 100 µM
GI50 (OVCAR-3 ovarian): 0.0316 µM
TGI (OVCAR-3 ovarian): 0.751 µM
GI50 (HCT-116 colon): 55.6 µM
TGI (HCT-116 colon): > 100 µM
GI50 (CCRF-CEM leukemia): > 100 µM
TGI (CCRF-CEM leukemia): > 100 µM
GI50 (NCI-H460 lung): 78.7 µM
TGI (NCI-H460 lung): > 100 µM
GI50 (MOLT-4 leukemia): 60 µM
TGI (MOLT-4 leukemia): > 100 µM
GI50 (LOX IMVI melanoma): > 100 µM
TGI (LOX IMVI melanoma): > 100 µM
GI50 (SNB-19 CNS): > 100 µM
TGI (SNB-19 CNS): > 100 µM
GI50 (COLO 205 colon): 68.6 µM
TGI (COLO 205 colon): > 100 µM
GI50 (MCF7 breast): > 100 µM
TGI (MCF7 breast): > 100 µM
GI50 (OVCAR-4 ovarian): 40.8 µM
TGI (OVCAR-4 ovarian): > 100 µM
GI50 (K-562 leukemia): 61.6 µM
TGI (K-562 leukemia): > 100 µM
GI50 (SF-539 CNS): > 100 µM
TGI (SF-539 CNS): > 100 µM
GI50 (UACC-62 melanoma): 60.8 µM
TGI (UACC-62 melanoma): > 100 µM
GI50 (RPMI-8226 leukemia): 66.8 µM
TGI (RPMI-8226 leukemia): > 100 µM
GI50 (SNB-75 CNS): > 100 µM
TGI (SNB-75 CNS): > 100 µM
GI50 (NCI-H226 lung): > 100 µM
TGI (NCI-H226 lung): > 100 µM
